Test results published in US12492197B2, “3,5-disubstituted pyrazole compounds as kinase inhibitors and uses thereof” (IMPACT THERAPEUTICS (SHANGHAI), INC, priority 2019, dated 2025).

Experiments:
[1] = target: T1, CHK1 kinase (Homo sapiens, UniProt O14757); assay: CHK1 kinase inhibition, ADP-Glo kinase assay; assay type: biochemical; settings: ATP 10 μM, CHK1 1 ng/well; for IC50: read-out: IC50 (inhibitory effect on CHK1 kinase activity); for inhibition at 0.01 µM: compound concentration 10 nM, read-out: Inh % (inhibitory effect on CHK1 kinase activity)
T1 construct: purchased Promega V1941
T1 sequence (O14757 1-476): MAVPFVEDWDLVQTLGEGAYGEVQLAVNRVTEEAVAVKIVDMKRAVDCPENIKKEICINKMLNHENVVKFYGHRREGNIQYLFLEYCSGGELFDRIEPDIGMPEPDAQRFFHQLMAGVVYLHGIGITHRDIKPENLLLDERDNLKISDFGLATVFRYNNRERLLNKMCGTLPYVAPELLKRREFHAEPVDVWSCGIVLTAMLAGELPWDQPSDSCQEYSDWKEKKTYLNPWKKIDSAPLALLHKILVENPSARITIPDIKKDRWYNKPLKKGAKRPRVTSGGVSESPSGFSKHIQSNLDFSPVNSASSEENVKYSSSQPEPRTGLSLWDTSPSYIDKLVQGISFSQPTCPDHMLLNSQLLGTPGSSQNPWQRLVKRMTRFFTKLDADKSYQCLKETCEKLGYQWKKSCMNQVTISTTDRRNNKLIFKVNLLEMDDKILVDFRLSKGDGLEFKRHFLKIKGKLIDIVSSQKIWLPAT

[2] = test system: human breast cancer cell HCC1806; assay: Proliferation of HCC1806 cells, MTT assay; assay type: cell-based; settings: HCC1806, 72 h, 3 days treatment, read-out: IC50 (inhibition of proliferation of HCC1806)
[3] = test system: human pancreatic cancer cell SW1990; assay: Proliferation of SW1990 cells, MTT assay; assay type: cell-based; settings: SW1990, 120 h, 5 days treatment, read-out: IC50 (inhibition of proliferation of SW1990)
Description: Newly revived SW1990 cells (purchased from Shanghai Fuheng Biology) were cultured and passaged for at least three generations before use. Cells were used at about 90% confluency for experiments. Cells were digested with trypsinase and centrifuged at 800 rpm for 5 minutes. The cell pellets were resuspended in fresh DMEM medium and cells were counted. Cells were seeded on 96-well cell culture plates at 5000 cells/well and incubated overnight at 37° C., 5% CO2. The stock solutions of the test substances (including the test compounds and the reference compound) were serially diluted to 8 concentrations with DMSO at a ratio of 1:3. 5 μL of each serially diluted solutions was added to 120 μL of medium (diluted by 25 times) and mixed by shaking. […] The cell culture plates were returned to incubator at 37° C. and 5% CO2 for 5 days. At the end of the treatment the cell viability was determined by MTT colorimetric assay. Cell culture medium in each well was replaced by 100 μL/well of serum-free fresh medium containing MTT (0.5 mg/mL), and the culture was continued for additional 4 hours. Medium was then discarded and 100 μL/well of DMSO was added.
Data was analyzed by GraphPad Prism 6.0. The inhibitory effects of compounds on cell proliferation were plotted based on cell viability vs. the logarithm of compound concentration. Cell viability %=(ODcompound−ODbackground)/(ODDMSO−ODbackground)×100.

[4] = test system: human colon cancer cell LoVo; assay: Proliferation of LoVo cells, MTT assay; assay type: cell-based; settings: 96 h, 4 days treatment, read-out: IC50 (inhibition of proliferation of LoVo)

IC50 [1] | inhibition at 0.01 µM [1] | IC50 [2] | IC50 [3] | IC50 [4] | Compound
– | 79% | 39.2 nM | 19.6 nM | – | COc1cc(Br)cc(OC[C@@H]2CNCCO2)c1-c1cc(Nc2cnc(C#N)cn2)n[nH]1 [Example 18, (S)-5-((5-(4-bromo-2-methoxy-6-(morpholin-2-ylmethoxy)phenyl)-1H-pyrazol-3-yl)amino)pyrazine-2-carbonitrile]
– | 89% | 31.7 nM | 19.1 nM | – | COc1cccc(OC2CCNCC2)c1-c1cc(Nc2cnc(C#N)cn2)n[nH]1 [Example 30, 5-((5-(2-methoxy-6-(piperidin-4-yloxy)phenyl)-1H-pyrazol-3-yl)amino)pyrazine-2-carbonitrile]
– | 40% | > 1000 nM | 809 nM | – | COc1c(Cl)ccc(OC[C@@H]2CNCCO2)c1-c1cc(Nc2cnc(C#N)cn2)n[nH]1 [Example 15, (S)-5-((5-(3-chloro-2-methoxy-6-(morpholin-2-ylmethoxy)phenyl)-1H-pyrazol-3-yl)amino)pyrazine-2-carbonitrile]
– | 50% | 895 nM | 615 nM | – | COc1ccc(Cl)c(OC[C@@H]2CNCCO2)c1-c1cc(Nc2cnc(C#N)cn2)n[nH]1 [Example 17, (S)-5-((5-(3-chloro-6-methoxy-2-(morpholin-2-ylmethoxy)phenyl)-1H-pyrazol-3-yl)amino)pyrazine-2-carbonitrile]

More lines, now with the values behind:

Compound | IC50 [1] | inhibition at 0.01 µM [1] | IC50 [2] | IC50 [3] | IC50 [4]
COc1cccc(OC[C@@H]2CNCCO2)c1-c1cc(Nc2cnc(C#N)cn2)n[nH]1 [Example 1, (S)-5-((5-(2-methoxy-6-(morpholin-2-ylmethoxy)phenyl)-1H-pyrazol-3-yl)amino)pyrazine-2-carbonitrile] | 0.84 nM | 95% | 7.4 nM | 6.3 nM | 15.5 nM
COc1cccc(OC[C@H]2CCCNC2)c1-c1cc(Nc2cnc(C#N)cn2)n[nH]1 [Example 9, (S)-5-((5-(2-methoxy-6-(piperidin-3-ylmethoxy)phenyl)-1H-pyrazol-3-yl)amino)pyrazine-2-carbonitrile] | 0.97 nM | 92% | 1.2 nM | 1.2 nM | 4.4 nM
COc1cccc(OC[C@@H]2CNCCO2)c1-c1cc(Nc2cnc(C(F)(F)F)cn2)n[nH]1 [Example 5, (S)—N-(5-(2-methoxy-6-(morpholin-2-ylmethoxy)phenyl)-1H-pyrazol-3-yl)-5-(trifluoromethyl)pyrazin-2-amine] | – | 50% | 394 nM | 287 nM | –
COc1cccc(OC[C@H]2CNCCO2)c1-c1cc(Nc2cnc(C#N)cn2)n[nH]1 [Example 3, (R)-5-((5-(2-methoxy-6-(morpholin-2-ylmethoxy)phenyl)-1H-pyrazol-3-yl)amino)pyrazine-2-carbonitrile] | – | 79% | 94.2 nM | 50.7 nM | –
COc1cc(F)cc(OC[C@@H]2CNCCO2)c1-c1cc(Nc2cnc(C#N)cn2)n[nH]1 [Example 14, (S)-5-((5-(4-fluoro-2-methoxy-6-(morpholin-2-ylmethoxy)phenyl)-1H-pyrazol-3-yl)amino)pyrazine-2-carbonitrile] | 0.69 nM | 94% | 12 nM | 6.1 nM | 19.2 nM
COc1cccc(OC[C@@H]2CNCCO2)c1-c1cc(Nc2ccc(C#N)nc2)n[nH]1 [Example 2, (S)-5-((5-(2-methoxy-6-(morpholin-2-ylmethoxy)phenyl)-1H-pyrazol-3-yl)amino)picolinonitrile] | – | 85% | 153 nM | 84.9 nM | –
COc1cccc(OCC2CCNCC2)c1-c1cc(Nc2cnc(C#N)cn2)n[nH]1 [Example 12, 5-((5-(2-methoxy-6-(piperidin-4-ylmethoxy)phenyl)-1H-pyrazol-3-yl)amino)pyrazine-2-carbonitrile] | 0.72 nM | – | 13.9 nM | 10.1 nM | –
COc1cccc(OC[C@H]2CCNC2)c1-c1cc(Nc2cnc(C#N)cn2)n[nH]1 [Example 13, (S)-5-((5-(2-methoxy-6-(pyrrolidin-3-ylmethoxy)phenyl)-1H-pyrazol-3-yl)amino)pyrazine-2-carbonitrile] | 0.45 nM | – | 2.1 nM | 1.9 nM | –
